According to patent US11840524B2, “4-substituted phenyl-1,3,5-triazine derivatives as modulators of TrK receptors” (ALZECURE PHARMA AB, priority 2018, dated 2023):

What was measured:
[1] = target: T1, TrkB (Homo sapiens, UniProt Q16620); experiment: Cell-based Enzyme Fragment Complementation (EFC) assay, U2OS cells over-expressing TrkB; conditions: compound pre-mixed with ligand, final ligand concentration 10 ng/mL, 3 hours at room temperature, read-out: TrkB potency expressed as EC50
T1 construct: expressed in transfected cells; host or cells: U2OS
T1 sequence (Q16620 32-822): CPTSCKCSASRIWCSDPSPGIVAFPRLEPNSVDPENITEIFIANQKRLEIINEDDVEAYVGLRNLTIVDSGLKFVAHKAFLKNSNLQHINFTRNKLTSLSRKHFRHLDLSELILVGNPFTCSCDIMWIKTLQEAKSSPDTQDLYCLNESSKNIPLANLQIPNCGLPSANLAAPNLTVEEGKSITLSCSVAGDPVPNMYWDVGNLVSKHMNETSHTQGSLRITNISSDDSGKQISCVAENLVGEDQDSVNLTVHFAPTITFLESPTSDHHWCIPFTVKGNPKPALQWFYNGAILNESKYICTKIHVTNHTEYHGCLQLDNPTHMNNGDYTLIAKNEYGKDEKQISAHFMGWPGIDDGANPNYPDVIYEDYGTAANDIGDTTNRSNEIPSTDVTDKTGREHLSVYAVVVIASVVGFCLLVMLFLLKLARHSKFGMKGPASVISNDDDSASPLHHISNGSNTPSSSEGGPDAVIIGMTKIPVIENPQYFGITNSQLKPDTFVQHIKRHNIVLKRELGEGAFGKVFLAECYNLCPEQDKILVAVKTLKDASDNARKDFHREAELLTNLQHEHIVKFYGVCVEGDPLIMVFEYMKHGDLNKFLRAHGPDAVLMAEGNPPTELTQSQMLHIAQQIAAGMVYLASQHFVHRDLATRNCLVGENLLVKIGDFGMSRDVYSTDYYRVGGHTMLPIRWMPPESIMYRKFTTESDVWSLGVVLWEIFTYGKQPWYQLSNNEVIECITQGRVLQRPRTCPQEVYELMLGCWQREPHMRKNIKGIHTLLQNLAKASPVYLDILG
Excerpt: (§1) A high throughput cell-based screen has been used to identify positive modulators of TrkA, TrkB and TrkC. The screen involves the use of cell-based assay overexpressing TrkA, TrkB or TrkC. The purpose of the assay is to identify compounds that modulate neurotrophin signalling (Forsell et al 2012). The assay can be used in inhibitor mode using a high concentration of ligand, in modulator mode using an intermediate concentration and in agonist mode using a low concentration of ligand.
(§2) The assay uses Enzyme Fragment Complementation (EFC) technique, which is a proximity-based assay. Briefly, cells used in this assay over-express two fusion proteins, i.e. the receptor, which can be one of TrkA, TrkB or TrkC fused to a small peptide of beta-galactosidase and an adaptor protein, i.e. SHC1 (or any other Trk-adaptor protein) fused to the major part of beta-galactosidase. […] The proximity between the small activating peptide on the receptor and the major part of beta-galactosidase on the adaptor protein leads to an active beta-galactosidase enzyme. The activation of the receptor is quantified by measuring the amount of active beta-galactosidase by its conversion of a non-luminescent substrate into a luminescent product.
(§3) U2OS-cells, over-expressing TrkA or TrkB or TrkC, were plated in 96- or 384-well plates and incubated overnight. On the following day, test compound was pre-mixed with ligand (NGF) and the ligand-compound mixture is then added to the cells to yield a final ligand concentration of 10 ng/mL. After 3 hours of incubation at room temperature, the incubation is stopped by the addition of a beta-galactosidase substrate mixture containing detergents. The substrate mixture is incubated for 60 minutes at ambient temperature. The luminescence is thereafter read by the use of a plate reader.

[2] = target: T2, TrkC (Homo sapiens, UniProt Q16288); experiment: Cell-based Enzyme Fragment Complementation (EFC) assay, U2OS cells over-expressing TrkC; conditions: compound pre-mixed with ligand, final ligand concentration 10 ng/mL, 3 hours at room temperature, read-out: TrkC potency expressed as EC50
T2 construct: expressed in transfected cells; host or cells: U2OS
T2 sequence (Q16288 32-839): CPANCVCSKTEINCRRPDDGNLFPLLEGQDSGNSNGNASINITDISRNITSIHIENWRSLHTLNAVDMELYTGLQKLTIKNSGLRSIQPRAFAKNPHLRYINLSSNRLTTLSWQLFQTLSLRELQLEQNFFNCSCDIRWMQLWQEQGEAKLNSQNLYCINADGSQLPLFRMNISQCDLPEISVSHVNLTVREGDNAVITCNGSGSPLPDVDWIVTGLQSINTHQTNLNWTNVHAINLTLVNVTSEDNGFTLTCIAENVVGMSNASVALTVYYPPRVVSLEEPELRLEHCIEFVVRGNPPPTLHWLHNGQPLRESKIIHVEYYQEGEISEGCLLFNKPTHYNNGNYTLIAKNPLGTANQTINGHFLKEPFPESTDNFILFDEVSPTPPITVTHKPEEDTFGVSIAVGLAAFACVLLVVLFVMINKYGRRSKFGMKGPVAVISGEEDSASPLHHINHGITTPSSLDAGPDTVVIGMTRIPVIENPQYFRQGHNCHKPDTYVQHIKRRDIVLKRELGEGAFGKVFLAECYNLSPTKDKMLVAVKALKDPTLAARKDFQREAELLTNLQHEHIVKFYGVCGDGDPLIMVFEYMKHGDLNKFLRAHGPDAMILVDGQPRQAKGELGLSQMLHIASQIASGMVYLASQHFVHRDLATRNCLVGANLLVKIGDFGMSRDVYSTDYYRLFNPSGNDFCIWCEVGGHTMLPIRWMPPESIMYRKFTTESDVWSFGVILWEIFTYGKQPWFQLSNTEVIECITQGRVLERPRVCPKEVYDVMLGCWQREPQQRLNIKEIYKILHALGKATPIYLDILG
Excerpt: as §1, §2
U2OS-cells, over-expressing TrkA or TrkB or TrkC, were plated in 96- or 384-well plates and incubated overnight. […] The luminescence is thereafter read by the use of a plate reader.

[3] = target: T3, TrkA (Homo sapiens, UniProt P04629); experiment: Cell-based Enzyme Fragment Complementation (EFC) assay, U2OS cells over-expressing TrkA; conditions: compound pre-mixed with ligand (NGF), final ligand concentration 10 ng/mL, 3 hours at room temperature, read-out: TrkA potency expressed as EC50
T3 construct: expressed in transfected cells; host or cells: U2OS
T3 sequence (P04629 33-796): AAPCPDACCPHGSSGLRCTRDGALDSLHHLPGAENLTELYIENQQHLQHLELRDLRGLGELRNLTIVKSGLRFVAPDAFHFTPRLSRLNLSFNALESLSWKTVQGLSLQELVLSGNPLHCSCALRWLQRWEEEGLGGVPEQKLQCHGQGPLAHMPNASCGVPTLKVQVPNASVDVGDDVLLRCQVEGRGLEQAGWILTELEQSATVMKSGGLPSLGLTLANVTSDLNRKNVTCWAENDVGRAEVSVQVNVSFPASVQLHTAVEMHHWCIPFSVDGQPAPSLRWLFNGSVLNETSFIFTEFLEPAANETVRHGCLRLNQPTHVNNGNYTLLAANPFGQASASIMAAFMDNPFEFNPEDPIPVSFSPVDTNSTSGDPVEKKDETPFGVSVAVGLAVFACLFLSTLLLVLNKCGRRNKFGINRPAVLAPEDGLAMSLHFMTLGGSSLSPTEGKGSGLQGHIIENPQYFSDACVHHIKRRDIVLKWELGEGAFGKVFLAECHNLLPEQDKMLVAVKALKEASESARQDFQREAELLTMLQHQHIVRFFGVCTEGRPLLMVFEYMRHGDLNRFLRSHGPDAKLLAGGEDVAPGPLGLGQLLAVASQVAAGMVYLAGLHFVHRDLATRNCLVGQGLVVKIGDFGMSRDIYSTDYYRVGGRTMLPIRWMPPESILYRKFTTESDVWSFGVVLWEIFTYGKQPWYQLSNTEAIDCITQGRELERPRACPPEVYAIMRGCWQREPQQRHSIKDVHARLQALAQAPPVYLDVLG
Excerpt: as §1, §2, §3

[4] = tested on: ephrin type-B receptor 2 (EphB2); conditions: Suzuki et al., FEBS Open Bio 2016; cited from earlier work

Compound | EC50 [1] [nM] | EC50 [2] [nM] | EC50 [3] [nM] | inhibition of the binding of β-amyloid oligomers to EphB2 [4] [%]
O=c1[nH]c(=O)n(-c2ccc(Oc3ccccc3)c(Cn3cccn3)c2)c(=O)n1-c1ccccc1 [Example 1, 1-{4-phenoxy-3-[(1H-pyrazol-1-yl)methyl]phenyl}-3-phenyl-1,3,5-triazinane-2,4,6-trione] | 200 | 120 | 160 | –
O=c1[nH]c(=O)n(-c2ccc(Oc3ccccc3)c(Cn3ccnc3)c2)c(=O)n1-c1ccccc1 [Example 2, 1-{3-[(1H-imidazol-1-yl)methyl]-4-phenoxyphenyl}-3-phenyl-1,3,5-triazinane-2,4,6-trione] | 270 | 200 | 380 | –
1-{3-[(4-methyl-1H-imidazol-1-yl)methyl]-4-phenoxyphenyl}-3-(3-methylphenyl)-1,3,5-triazinane-2,4,6-trione+1-{3-[(5-methyl-1H-imidazol-1-yl)methyl]-4-phenoxyphenyl}-3-(3-methylphenyl)-1,3,5-triazinane-2,4,6-trione [Example 11] | 140 | – | 220 | –
O=c1[nH]c(=O)n(-c2ccc(Oc3ccccc3)c(Cn3cncn3)c2)c(=O)n1-c1ccccc1 [Example 3, 1-{4-phenoxy-3-[(1H-1,2,4-triazol-1-yl)methyl]phenyl}-3-phenyl-1,3,5-triazinane-2,4,6-trione] | 810 | – | 520 | –
Cn1c(=O)[nH]c(=O)n(-c2ccc(-c3ccccc3)c(Cn3cccn3)c2)c1=O [Example 5, 1-methyl-3-{2-[(1H-pyrazol-1-yl)methyl]-[1,1′-biphenyl]-4-yl}-1,3,5-triazinane-2,4,6-trione] | 31000 | – | 1320 | –
CCc1ccc(Oc2ccc(-n3c(=O)[nH]c(=O)n(C)c3=O)cc2Cn2cccn2)cc1 [Example 4, 1-[4-(4-ethylphenoxy)-3-[(1H-pyrazol-1-yl)methyl]phenyl]-3-methyl-1,3,5-triazinane-2,4,6-trione] | 2070 | – | 1100 | –
Cc1cc(-n2c(=O)[nH]c(=O)n(C)c2=O)ccc1Oc1ccc(SC(F)(F)F)cc1 [toltrazuril, 1-methyl-3-(3-methyl-4-{4-[(trifluoromethyl)sulfanyl]phenoxy}phenyl)-1,3,5-triazinane-2,4,6-trione] | – | – | – | 30

Second part, led by results:

EC50 [1] [nM] | EC50 [2] [nM] | EC50 [3] [nM] | Compound | inhibition of the binding of β-amyloid oligomers to EphB2 [4] [%]
60 | – | 100 | Cc1cccc(-n2c(=O)[nH]c(=O)n(-c3ccc(Oc4ccccc4)c(Cn4cnc(F)c4)c3)c2=O)c1 [Example 12, 1-{3-[(4-fluoro-1H-imidazol-1-yl)methyl]-4-phenoxyphenyl}-3-(3-methylphenyl)-1,3,5-triazinane-2,4,6-trione] | –
170 | – | 180 | CCn1cc(Cc2cc(-n3c(=O)[nH]c(=O)n(-c4ccccc4)c3=O)ccc2Oc2ccccc2)cn1 [Example 16, 1-{3-[(1-ethyl-1H-pyrazol-4-yl)methyl]-4-phenoxyphenyl}-3-phenyl-1,3,5-triazinane-2,4,6-trione] | –
180 | – | 180 | O=c1[nH]c(=O)n(-c2ccc(Oc3ccccc3)c(Cn3cc(F)cn3)c2)c(=O)n1-c1ccccc1 [Example 14, 1-{3-[(4-fluoro-1H-pyrazol-1-yl)methyl]-4-phenoxyphenyl}-3-phenyl-1,3,5-triazinane-2,4,6-trione] | –
12000 | – | 1670 | Cc1cccc(-n2c(=O)[nH]c(=O)n(-c3ccc(Oc4ccccc4)c(OCc4cnc[nH]4)c3)c2=O)c1 [Example 10, 1-{3-[(1H-imidazol-5-yl)methoxy]-4-phenoxyphenyl}-3-(3-methylphenyl)-1,3,5-triazinane-2,4,6-trione] | –
470 | – | 650 | Cc1cccc(-n2c(=O)[nH]c(=O)n(-c3ccc(Oc4ccccc4)c(-n4cnc(C)c4)c3)c2=O)c1 [Example 13, 1-[3-(4-methyl-1H-imidazol-1-yl)-4-phenoxyphenyl]-3-(3-methylphenyl)-1,3,5-triazinane-2,4,6-trione] | –
450 | – | 720 | COc1ccc(-n2c(=O)[nH]c(=O)n(-c3ccc(Oc4ccccc4)c(Cn4ccnc4)c3)c2=O)cc1 [Example 7, 1-{3-[(1H-imidazol-1-yl)methyl]-4-phenoxyphenyl}-3-(4-methoxyphenyl)-1,3,5-triazinane-2,4,6-trione] | –
90 | – | 120 | Cc1cccc(-n2c(=O)[nH]c(=O)n(-c3ccc(Oc4ccccc4)c(Cn4cc(F)cn4)c3)c2=O)c1 [Example 15, 1-{3-[(4-fluoro-1H-pyrazol-1-yl)methyl]-4-phenoxyphenyl}-3-(3-methylphenyl)-1,3,5-triazinane-2,4,6-trione] | –
200 | – | 160 | Cc1cccc(-n2c(=O)[nH]c(=O)n(-c3ccc(Oc4ccccc4)c(Cn4ccnc4)c3)c2=O)c1 [Example 6, 1-{3-[(1H-imidazol-1-yl)methyl]-4-phenoxyphenyl}-3-(3-methylphenyl)-1,3,5-triazinane-2,4,6-trione] | –
170 | – | 190 | Cc1cccc(-n2c(=O)[nH]c(=O)n(-c3ccc(Oc4ccc(F)cc4)c(Cn4ccnc4)c3)c2=O)c1 [Example 8, 1-[4-(4-fluorophenoxy)-3-[(1H-imidazol-1-yl)methyl]phenyl]-3-(3-methylphenyl)-1,3,5-triazinane-2,4,6-trione] | –
120 | – | 250 | Cc1cccc(-n2c(=O)[nH]c(=O)n(-c3ccc(Oc4ccccc4)c(OCc4ncc[nH]4)c3)c2=O)c1 [Example 9, 1-{3-[(1H-imidazol-2-yl)methoxy]-4-phenoxyphenyl}-3-(3-methylphenyl)-1,3,5-triazinane-2,4,6-trione] | –
